Source: patent US20030157197A1, “PLANT-DERIVED ANTI-PARASITIC AND ANTIFUNGAL COMPOUNDS AND METHODS OF EXTRACTING THE COMPOUNDS” (priority 1998, published 2003)
Converted amounts (≈) assume the structure as drawn. Where two headings read alike, the source gives them in different places.

What was measured:
RK13 cells = tested on: RK13 cells; set-up: dose or concentration left out as unconfirmed; settings: cited from earlier work
Enterocytozoon cuniculi = tested on: Enterocytozoon cuniculi; set-up: dose or concentration left out as unconfirmed; settings: cited from earlier work
[1] = tested on: Plasmodium falciparum Indochina (W-2) clone; assay: in vitro antimalarial assay, [3H]hypoxanthine uptake, W-2 clone; type: cell-based; settings: chloroquine-resistant
Experimental: (§1) The in vitro antimalarial assays were performed by using a modification of the semi-automated microdilution technique described earlier (Desjardins et al., 1979, Milhous et al., 1985). Two Plasmodium falciparum malaria parasite clones, designated Indochina (W-2) and Sierra Leone (D-6), were utilized in susceptibility testing. The W-2 clone is resistant to chloroquine, pyrimethamine, sulfadoxine, and quinine, and the D-6 clone is resistant to mefloquine.
(§2) The test extracts/compound, was dissolved in DMSO and serially diluted using malarial growth medium. Drug-induced reduction in uptake of titriated hypoxanthine was used as an index of inhibition of parasite growth.

[2] = tested on: Plasmodium falciparum Sierra Leone (D-6) clone; assay: in vitro antimalarial assay, [3H]hypoxanthine uptake, D-6 clone; type: cell-based; settings: chloroquine-susceptible
Experimental: as §1, §2

Cladosporium cucumerinum = assay: TLC bioautographic antifungal test; type: cell-based; settings: TLC plate sprayed with spore suspension
Experimental: A method similar to that of Homans and Fuchs (1970) was employed. This technique involves direct spraying of thin layer chromatograms with conidial suspensions of a test organism. About 100 μg of extract was spotted on silica gel TLC plates and developed with suitable solvent system. Dried plates were separately sprayed with either a spore suspension of Cladosporium cucumerinum, and subsequent plates with spore suspensions of Cladosporium carrionii, Cladosporium cladosporioides, Cladosporium tennuisimum (ATCC 623337) and Fonsecaea pedrosoi (ATCC 52593), in some cases to determine the spectrum of activity. The plates were then incubated in sealed humid chambers at room temperature for four days in the dark. […] The powdered rhizome of A. danellii (200 g)was continously extracted with petroleum ether (bp 40-60° C.) to exhaustion in as soxhlet extractor. The petroleum ether extracts when combined and concentrated to dryness in vacuo gave a reddish brown residue (11.41 g). The air dried marc from the above extract was again extracted with ethanol in a soxhlet extractor, extracts were concentrated to dryness under reduce pressure using the rotary evaporator at 40° C. Both extracts were tested for antifungal activity using bioautography (TLC-bioassay) as described above. […]

[3] = tested on: Leishmania (Leishmania) chagasi, MHOM/BR/84/BA-13 promastigotes; assay: in vitro radiorespirometric microtest (RAM), antileishmanial; type: cell-based; settings: for respiration / metabolic rate for 14C-substrates: 50 μg/ml for 96 h, versus vehicle control
Experimental: An in vitro radiorespirometric microtest (RAM) technique was used to evaluate the extracts/fractions or pure compounds for possible antileishmanial activity. This method, as already noted, relies on drug inhibition of parasite production of ^14CO2 from a battery of ^14C-substrates by promastigotes to detect drug-mediated parasite damage at low drug concentration within a short time. The test is quantitative, rapid, consistent, and is conducted in serum-free medium in which prior adaptation is not necessary to cultivate the so-called “difficult to grow” species.
A clinical isolate of visceral Leishmania (Leishmania) chagasi, MHOM/BR/84/BA-13, was used for this study. This isolate was selected because sensitivity to SbV was previously determined using RAM.
All ^14C-substrates were selected with specific activities as close to 40 mCi mM^−1 per carbon atom as obtainable from commercial sources.
The procedure was conducted as previously described (Jackson et al., 1989, 1990). Promastigotes were maintained in log phase growth for 3 successive transfers (48-72 h apart) prior to radiorespirometric (RAM) testing. Test samples (or PBSS, 0.1 M phosphate-buffered balanced salt solution, plus drug solvent, DMSO, for parallel control cultures) was added 24 h after the third promastigote transfer to fresh growth medium. Incubation in the presence of plant samples was continued for 96 additional hours while the parasites remained in mid-log phase growth. The test sample was tested at 50 μg ml^−1. Drug sensitivity or resistance was based on ^14C-substrate(s) (listed in Table 1) for which ^14CO2 release was decreased for drug-treated parasites compared to parallel tests of phosphate-buffered balanced salt solution and vehicle (PBSS+DMSO) controls. Each experiment consisted of parallel: (a) duplicate tests of drug-treated parasites; plus (b) duplicate tests of drug vehicle control-treated parasites; plus (c) one “nonbiological” sterility control. The nonbiological control consisted of each ^14C-substrate (one substrate per microtiter tray well), and PBSS (the same PBSS batch used to wash, to suspend the parasites, and to make drug solution). Since there were no parasites in the nonbiological control, any ^14CO2 detected was attributed either to biologic contamination (or, less likely, chemical contamination) of the ^14C-substrates resulting in breakdown of the ^14C-substrates. If radioactivity above background (10 dpm) was detected in the nonbiological control, the suspect solution(s) was replaced and the experiment was repeated.

[4] = human; cited from earlier work
[5] = tested on: Trypanosoma brucei brucei Lab 110 EATRO and Trypanosoma brucei rhodesiense KETRI 243, 269, 243 As-10-3; assay: in vitro trypanosome screen, bloodstream trypomastigotes; type: cell-based; settings: for IC50: Trypanosoma brucei, RHODESIENSE; for fold increase in activity: versus primary extract / related species
Experimental: The in vitro activity of 39 plant extracts was tested against four strains of animal or human-pathogenic African trypanosomes, and three strains of mammalian-pathogenic Trichomonas spp. The trypanosomes studied were Trypanosoma brucei brucei Lab 110 EATRO, which is pathogenic to cattle and other livestock, and several strains of Trypanosoma brucei rhodesiense, a parasite of humans, domestic and wild animals. Strains of T. b. rhodesiense included drug resistant clinical isolates KETRI 243 and 269 and KETRI 243 As-10-3, a highly melarsen- and diamidine-resistant clone of KETRI 243. The 39 extracts were tested in an in vitro screen using a semi-defined medium for growth of bloodstream trypomastigotes at 37° C. (Hirumi & Hirumi, 1989) to determine IC50 values (Bacchi et al., 1996). Of these, 10 had IC50values at or below 10 μg/ml and were considered sufficiently active to warrant testing of more purified extracts. Of the four secondary extracts supplied, one, aulacocarpin (III) (SU1460), derived from the primary extract SU787 of A. aulocacarpus featured a 10-15 fold increase in activity. […] Eight additional primary extracts were also tested in the trypanosome screen (Table 3). […] Aulocacarpin (III) is an extract from Aframonum aulocacarpus and has the following formula: [drawing 3]

[6] = Plasmodium falciparum, read-out: IC50
[7] = previously determined using RAM

## CCNCCCNCCCNCCCNCC [1,11-diethylnorspermine]
RK13 cells
  toxicity to feeder layer RK13 cells: without toxicity
Enterocytozoon cuniculi
  effect on parasite culture: sterilize the culture

## CCNCCCCNCCCCNCCCCNCCCCNCC [1,19-bis(ethylamino)5,10,15-triazanonadecane]
RK13 cells
  toxicity to feeder layer RK13 cells: without toxicity
Enterocytozoon cuniculi
  effect on parasite culture: sterilize the culture

## C=C1CC[C@H]2C(C)(C)CCC[C@]2(C)[C@H]1C/C=C(/C=O)CC=O [Labda-8(17),12-diene-15,16-dial, labda-8(17),12-diene-15,16-dial]
[1]
  IC50: 0.28018 µg/mL (≈ 0.926 µM)
[2]
  IC50: 0.09666 µg/mL (≈ 0.32 µM)
Cladosporium cucumerinum
  lowest concentration giving a clearly visible inhibition zone: 0.5 µg
[3]
  concentration inhibiting Leishmania promastigotes: ≤ 50 µg
  respiration / metabolic rate for 14C-substrates: markedly reduced respiration
[3]; 50 μg/ml
  inhibition of growth of the leishmania strain: completely inhibited
[3]; listed as labdane-dial
  respiration / metabolic rate for 14C-substrates: near zero
[3]; after a 96 hr incubation
  parasite viability in culture: no live parasites were observed

## Nc1nc(N)nc(Nc2ccc([As]3SCC(CO)S3)cc2)n1 (stereo not shown) [Melarsoprol, melarsoprol]
[4]
  incidence of cerebral episodes: 3-5%

## COC(=O)C(CC[C@H]1C2(CCC3C(C)(C)[C@@H](O)CC[C@@]31C)CO2)C1CO1 (stereo partly shown) [SU1460, aulacocarpin]
[5]
  IC50: 0.86 µg/mL (≈ 2.35 µM)
  fold increase in activity: 10-15 fold

## COc1cc(O)c2c(c1)O[C@H](c1ccc(O)cc1)CC2=O [Sakuranetin]
[1]; [6]
  IC50: 0.17 µg/mL (≈ 0.594 µM)
[2]; [6]
  IC50: 0.124 µg/mL (≈ 0.433 µM)
[3]; in vitro
  antileishmanial activity: strongest antileishmanial activity

## CC1(C)CCC[C@@]2(C)[C@H]1CC[C@@]1(CO1)[C@@H]2C/C=C(/C=O)CC=O [aframodial]
[5]
  IC50: 0.86 µg/mL (≈ 2.7 µM)
  fold increase in activity: 10-11 fold

## sodium antimony gluconate [Pentostam, reference compound]
[3]; [7]
  concentration at which the isolate is sensitive, as Sb: 6 μg ml^−1 Sb
  concentration at which the isolate is sensitive, as drug: 20 μg ml^−1 drug
